From US9005981B2, “Assays utilizing nicotinic acetylcholine receptor subunits” (priority 2008, dated 2015)
Read-outs that look alike come from different tables or passages of the source.

Legend:
[1] = tested on: Drosophila melanogaster flies of a spinosyn-resistant strain; assay: Fly mortality screen, spinosyn-resistant flies; format: in vivo; conditions: for mortality: 100 ppm in 10% sucrose via cotton wicks, 72 hours post-treatment, spinosyn-resistant flies; for resistance of spinosyn A resistant flies compared to wild-type flies (based on LD50): dose-response data, LD50 resistant vs wild-type
Method: (§1) Ten adult Drosophila melanogaster flies (5 males and 5 females) of the Oregon wild-type strain and ten adult flies of a spinosyn-resistant strain were used per treatment. Two sets (of 10 flies) were set-up per treatment. Stocks of spinosyn A and a 21-butenyl-spinosyn analog were formulated at 1000 ppm in 2:1 acetone:water and then diluted to the required concentration in 10% sucrose. Vials received 500 ul of treatment (or solvent for controls) via cotton wicks (approximately ¼ inch) and flies were added to each vial and capped with a cotton plug. Flies were monitored over 72 hours post-treatment while being maintained at room-temperature with a 12:12 light:dark cycle.
(§2) In addition, the spinosyn A resistant flies were >100-fold resistant (based on LD50) to the new class of spinosyns, represented by the 21-butenyl spinosyns.

[2] = tested on: Drosophila melanogaster flies of the Oregon wild-type strain; assay: Fly mortality screen, wild-type flies; format: in vivo; conditions: 100 ppm in 10% sucrose via cotton wicks, 72 hours post-treatment
Method: as §1, §2

[3] = tested on: D α6 and C. elegans ric3 expressed in D.Mel-2 cells; format: binding, Drosophila melanogaster
Method: D.Mel-2 cells were seeded into 75 cm^2 flasks at 1.9×10^7 cells/flask in Drosophila SFM containing antibiotic/antimicotic and incubated overnight at 27° C. The transfection mix was prepared in 12×75 mm polystyrene tubes by mixing 1630 μl sterile water, 40 μg pIB/V5-HisA/ric3, 40 μg pIB/V5-HisA/30D and 250 μl CellFectin. The reagents were mixed gently and incubated at room temp for 15 minutes. While the transfection mix was incubating, the cells were washed with 10 ml fresh Drosophila SFM without antibiotics; this media was then removed from the cells and replaced with 6 ml fresh Drosophila SFM without antibiotics. To the transfection mix was added 4 ml Drosophila SFM without antibiotics and this was then transferred to the flask. The reagents were gently mixed by pipetting up and down and then incubated overnight at 27° C.
D.Mel-2 cells were purchased from Invitrogen (Carlsbad, Calif.) and grown in disposable 125 ml shake flasks using 50 ml volume. Cells were subcultured to 3×10^5 cells/ml twice per week in Drosophila SFM containing 5 ml/L Antibiotic-Antimycotic (100×) (Gibco, Carlsbad, Calif.). D.Mel-2 cells were seeded into a 12-well plate at a cell density of 5×10^5 cells/well and incubated overnight at 27° C. In a 12×75 mm polystyrene tube 6 μg pIB/V5-HisA/ric3, 82 μl sterile H2O and 12 μl CellFectin (Invitrogen, Carlsbad, Calif.) were added. The sample was mixed gently and incubated at room temperature for 15 minutes. While the transfection mix was incubating, media from one well of cells was removed and replaced with 1 ml fresh media without antibiotics. After 15 minutes, the media was removed from cells. To this transfection mix, 0.5 ml media (no antibiotics) was added. This solution was then added to the cells. The mixture was incubated for 48 hrs at 27° C. After 48 hrs, the cells were scraped from the plate using a cell scraper and split into 4 wells of a 6-well plate each containing 2 ml Drosophila SFM with antibiotics. Cells were allowed to attach for 1 hr at 27° C.; the media was removed and replaced with 2 ml fresh media containing 25 μg/ml Blasticidin S (Invitrogen, Carlsbad, Calif.). Cells were incubated at 27° C. for 5 days. After 5 days, the cells were scraped loose from the wells and combined into one tube. Cells were spun down at 600 rpm in a tabletop centrifuge; the media was removed and the cells were resuspended into a 50 ml shake culture in fresh Drosophila SFM containing 25 μg/ml Blasticidin S. The cells were incubated at 27° C./140 rpm. Cells were subcultured twice weekly back to cell density of 3×10^5 cells/ml. After 4 weeks the selection was cut back to 10 μg/ml Blasticidin S. After 3 months of growth under selection, a 12 well plate was seeded at 5×10^5 cells/well and cells were incubated over night at 27° C. The following reagents were added to each of three 12×75 mm polystyrene tubes: 2 μg pMT/V5-HisA/30D, 0.15 μg pCoHygro (Invitrogen, Carlsbad, Calif.) (a […] ratio of expression plasmid:selection plasmid), 89 μl sterile H2O and 12 μl CellFectin. The samples were mixed gently and incubated at room temp for 15 minutes and then transfected as described above. After 24 hrs, the media containing transfection mix was removed and replaced with 1 ml fresh media containing antibiotics. The incubation was continued at 27° C. for another 24 hrs. Cells were scraped loose from the 12-well plate (3 wells) and split into 2, 6-well plates. Cells were allowed to attach for 6 hours at which point, the media was replaced with 2 ml/well fresh media containing 200, 150, 100 or 50 μg/ml hygromycin B. The incubation was continued at 27° C.; every 4-5 days, the media was replaced with media containing hygromycin every 4-5 days. After 2 weeks of selection in the plates, the cells from the 200 μg/ml selection, were scraped loose and then gently pelleted and resuspended in 25 ml fresh media containing 200 μg/ml hygromycin B and then placed into a 125 ml shake flask.

34E/ric-3 = format: cell-based, Drosophila melanogaster; further: key: '−' indicates a negligible current was induced; '+' indicates a small amplitude current; '++' indicates a moderate amplitude current; '++++' indicates a large amplitude current
Method: (§3) Xenopus laevis (Xenopus 1, Ann Arbor, Mich.; Nasco, Fort Atkinson, Wis.) were anesthetized by bathing in a solution of 2 g/l tricaine methane sulfonate, and oocytes were surgically removed from the frog and placed in a culture solution that consisted of 96 mM NaCl, 2 mM KCl, 1.8 mM CaCl2, 1 mM MgCl2, 5 mM HEPES, 2.5 mM Na-pyruvate, 100 units/ml penicillin, and 0.1 mg/ml streptomycin, pH 7.6. Oocytes were dispersed in a nominally zero Ca^2+ protease treatment solution to defolliculate the oocytes. The protease treatment solution consisted of either 88 mM NaCl, 2.5 mM KCl, 1 mM MgCl2, 5 mM HEPES, 2.5 mM Na-pyruvate, 100 units/ml penicillin, and 0.1 mg/ml streptomycin, pH 7.6 plus 1.5 mg/ml collagenase IA (Sigma Chemical Co., St. Louis, Mo.). After isolation, the oocytes were thoroughly rinsed and returned to the above Ca^2+ containing culture solution and stored at 18° C.
(§4) Synthesis of cRNA was performed as follows: Plasmid DNA was linearized with one of the following restriction enzymes; Not I, Xho I or Nhe I. The linearized DNA was subsequently used as template for cRNA synthesis using T7 mMessage mMachine kit (Ambion, Austin, Tex.) following the manufacturer's instructions.
(§5) Micropipettes for injection of cRNA into Xenopus oocytes were pulled on a DMZ-Universal Puller (Zeitz-Instruments, München, Germany). The cRNA to be injected was drawn up into the micropipette with negative pressure. Approximately 10-50 ng of cRNA was injected into the oocytes by applying positive pressure using a Nanoject II oocyte injector (Drummond Scientific Co., Broomall, Pa.). Nucleic acid was introduced into the oocytes as follows: (1) nicotinic acetylcholine receptor alpha-6 subunit subunit (30D) (2) nicotinic alpha-7 receptor subunit (34E); (3) nicotinic acetylcholine receptor alpha-6 subunit and C. elegans ric-3 (30D and ric-3); (4) nicotinic alpha-7 receptor subunit and C. elegans ric-3 (34E and ric-3); (5) nicotinic acetylcholine receptor alpha-6 subunit and nicotinic alpha-7 receptor subunit (30D and 34E); and, (6) nicotinic acetylcholine receptor alpha-6 subunit, nicotinic alpha-7 receptor subunit and C. elegans ric-3 (30D, 34E and ric-3).
(§6) The control external solution for voltage clamp recordings consisted of 88 mM NaCl, 1 mM KCl, 0.41 mM CaCl2, 2.4 mM NaHCO3, 0.3 mM Ca(NO3)2, 0.82 mM MgSO4.7H2O, and 15 mM HEPES, pH 7.6. The recording chamber was continuously perfused with a gravity-fed perfusion system. Nicotine (1 mM) was added to the external solution and then added to the perfusate for 30 seconds. Then, nicotine was washed from the external solution a minimum of 10 minutes. Thereafter, spinosyn A was dissolved in dimethylsulfoxide (DMSO) and then dissolved in the external solution at a final concentration of 10 μM and then added to the perfusate for 60 seconds. Then, the spinosyn A was washed from the external solution. The final concentration of DMSO never exceeded 0.1% (v/v).

[4] = tested on: nicotinic acetylcholine receptor alpha-6 subunit (30D); format: cell-based, Drosophila melanogaster; further: key: '−' indicates a negligible current was induced; '+' indicates a small amplitude current; '++' indicates a moderate amplitude current; '++++' indicates a large amplitude current
Method: as §3, §4, §5, §6

[5] = tested on: nicotinic acetylcholine receptor alpha-5 subunit (34E); format: cell-based, Drosophila melanogaster; further: key: '−' indicates a negligible current was induced; '+' indicates a small amplitude current; '++' indicates a moderate amplitude current; '++++' indicates a large amplitude current
Method: as §3, §4, §5, §6

Dα6-nicotinic receptor = format: binding, Drosophila melanogaster
Method: Xenopus oocytes were injected as previously described for the electrophysiological assay and were used intact for binding assays.
Two main radioligands were used in binding assays: the conventional α7 radioligand, [^3]methyllycaconitine (MLA) and [^3]dihydrospinosyn A (DHSA). For both radioligands, the Binding Buffer used consisted of 10 mM sodium phosphate (7.2-7.4). All experiments using D.Mel-2 cell suspensions were carried out with 50 μl of cell suspension. For Xenopus oocyte binding assays, oocytes were pooled (2-5 oocytes) and transferred to 1 ml Binding Buffer. This was followed by gently aspirating the Binding Buffer and replacing with fresh Binding Buffer twice, to wash out any residual oocyte bathing media. The final volume of buffer added to each pool of oocytes was 50-100 μl. […] Subsequent dilutions were made in Binding Buffer. The final concentration of solvent was maintained at less than 0.1% in each well. […] For the cell extracts, bound radioactivity and free radioactivity fractions were separated by gentle vacuum through GF/C glass fiber filter mats using a TomTec (CT) 96-well cell harvester. […] Filter mats were dried in an oven at 60° C. and the radioactivity from samples was counted for three minutes with a Wallac MicroBeta Counter (Wallac, Conn.) using Meltilex solid-scintillant (PerkinElmer, Finland). […]

34E/30D/ric-3 = format: cell-based, Drosophila melanogaster; parameters: key to the marks not given beside the values; conditions: spinosyn A 10 μM for 60 seconds, oocytes clamped to −60 mV, peak current; further: key: '−' indicates a negligible current was induced; '+' indicates a small amplitude current; '++' indicates a moderate amplitude current; '++++' indicates a large amplitude current
Method: as §3, §4
(§7) Micropipettes for injection of cRNA into Xenopus oocytes were pulled on a DMZ-Universal Puller (Zeitz-Instruments, München, Germany). […]

34E/30D = format: cell-based, Drosophila melanogaster; parameters: key to the marks not given beside the values; conditions: spinosyn A 10 μM for 60 seconds, oocytes clamped to −60 mV, peak current
Method: as §3, §4, §7

30D/ric-3 = format: cell-based, Drosophila melanogaster; conditions: spinosyn A 10 μM for 60 seconds, oocytes clamped to −60 mV, peak current
Method: as §3, §4, §5, §6

[6] = D.Mel-2 cells expressing D α6 and C. elegans ric3

21-butenyl spinosyn
mortality [1]: no significant mortality | resistance of spinosyn A resistant flies compared to wild-type flies (based on LD50) [1]: > 100 fold | mortality [2]: all wild-type flies exhibited mortality

CCN1C[C@]2(COC(=O)c3ccccc3N3C(=O)C[C@H](C)C3=O)CC[C@H](OC)[C@@]34[C@@H]5C[C@H]6[C@H](OC)[C@@H]5[C@](O)(C[C@@H]6OC)[C@@](O)([C@@H](OC)[C@H]23)[C@@H]14 [MLA, methyllycaconitine]
displacement of [3H]DHSA binding [3, 6]: can be demonstrated at higher concentrations | overall affinity for this receptor complex ([3]; [3H]DHSA binding assay, D.Mel-2 cells): relatively poor

CN1CCCC1c1cccnc1 (centres unmarked) [Nicotine, nicotine]
Nicotine Response (34E/ric-3): + | Nicotine Response [4]: − | Nicotine Response [5]: + | % Displacement of Total Binding (Dα6-nicotinic receptor): 72% | displacement of [3H]DHSA binding [3]: displacement

CC[C@H]1CCC[C@H](O[C@H]2CC[C@H](N(C)C)[C@@H](C)O2)[C@@H](C)C(=O)C2=C[C@@H]3[C@@H](C=C[C@@H]4C[C@@H](O[C@@H]5O[C@@H](C)[C@H](OC)[C@@H](OC)[C@H]5OC)C[C@@H]34)[C@@H]2CC(=O)O1 [Spinosyn A, spinosyn A]
mortality [1]: no significant mortality | resistance of spinosyn A resistant flies compared to wild-type flies (based on LD50) [1]: at least 100 fold | Spinosyn A Response (34E/30D/ric-3): ++++ | Spinosyn A Response (34E/30D): ++ | Spinosyn A Response (34E/ric-3; 34E/ric-3, spinosyn A 10 μM for 60 seconds, oocytes clamped to −60 mV, peak current): − | Spinosyn A Response ([4]; 30D, spinosyn A 10 μM for 60 seconds, oocytes clamped to −60 mV, peak current): − | Spinosyn A Response (30D/ric-3): + | Spinosyn A Response ([5]; 34E, spinosyn A 10 μM for 60 seconds, oocytes clamped to −60 mV, peak current): − | % Displacement of Total Binding (Dα6-nicotinic receptor; 10 μM, [3H]MLA, intact Xenopus oocytes 3 days post-injection with Dmα6): 72% | displacement of [3H]DHSA binding [3, 6]: significant displacement | mortality [2]: all wild-type flies exhibited mortality

C[N+](C)(C)CCOC(N)=O.[Cl-] [carbamylcholine]
displacement of [3H]DHSA binding [3, 6]: did not significantly displace

CC[C@H]1CCC[C@H](O[C@H]2CC[C@H](N(C)C)[C@@H](C)O2)[C@@H](C)C(=O)C2=C[C@H]3[C@@H]4C[C@H](O[C@@H]5O[C@@H](C)[C@H](OC)[C@@H](OC)[C@H]5OC)C[C@H]4CC[C@H]3[C@@H]2CC(=O)O1 [dihydrospinosyn A]
displacement of [3H]DHSA binding [3, 6]: significant displacement

Clc1ccc(C2CC3CCC2N3)cn1 (centres unmarked) [epibatidine]
displacement of [3H]DHSA binding [3, 6]: did not significantly displace

NS(=O)(=O)c1cc(C(=O)O)c(NCc2ccco2)cc1Cl [furosemide]
displacement of [3H]DHSA binding [3]: No significant displacement

O=[N+]([O-])NC1=NCCN1Cc1ccc(Cl)nc1 [imidacloprid]
displacement of [3H]DHSA binding [3, 6]: did not significantly displace

CN1[C@@H](CC(=O)c2ccccc2)CCC[C@H]1C[C@H](O)c1ccccc1 [lobeline]
displacement of [3H]DHSA binding [3, 6]: did not significantly displace

CC[C@H]1CCC[C@H](O)[C@@H](C)C(=O)C2=C[C@@H]3[C@@H](C=C[C@@H]4C[C@@H](O[C@@H]5O[C@@H](C)[C@H](OC)[C@@H](OC)[C@H]5OC)C[C@@H]34)[C@@H]2CC(=O)O1 [pseudoagylcone of spinosyn A]
displacement of [3H]DHSA binding [3, 6]: Nor was there significant displacement

C[C@H](O)[C@H](O)[C@@H](O)[C@@H](O)C=O [rhamnose]
displacement of [3H]DHSA binding [3, 6]: No significant displacement

CN1COCN(Cc2cnc(Cl)s2)/C1=N\[N+](=O)[O-] [thiamethoxam]
displacement of [3H]DHSA binding [3, 6]: did not significantly displace

alpha-bungarotoxin
displacement of [3H]DHSA binding [3]: can be demonstrated at higher concentrations | overall affinity for this receptor complex [3]: relatively poor
